# Data from EPA's ToxValDB 9.5.
# Several values for one entry are separate records, joined by “and”; a condition that tells them apart may be missing. Equal entries are not always repeated.
# Tests used:
# Rattus norvegicus = conditions: oral
# Mus musculus = conditions: oral
# [1] = chronic, duration: 14 weeks, M, Sprague-Dawley, Hematological: 45% increase in non-segmented neutrophils
# [2] = chronic, duration: 104 weeks, F, Sprague-Dawley, Body Weight: 14% reduction in final body weight
# [3] = chronic, duration: 104 weeks, M, Sprague-Dawley, Hepatic: Hepatocellular hypertrophy at ?0.1 mg/kg/day / single cell necrosis and cystic degeneration at […]
# [4] = developmental, duration: 20 days, Sprague-Dawley, Developmental: Reduced serum T4 in pups at 1 mg/kg/day / approximately 60% survival at weaning versus 80% in controls at 2 mg/kg/day
# [5] = developmental, duration: 21 days, F, Sprague-Dawley, Developmental: ~30% increased locomotor activity and concurrent failure to habituate to test environment in male pups on PND 17
# [6] = reproduction developmental, duration: 19 days, F, Sprague-Dawley, Body Weight: Decreased mean body weight gain, 10% at 2 mg/kg/day and 33% at 5 mg/kg/day
# [7] = reproduction developmental, duration: 67 days, F, Sprague-Dawley, Body Weight: 22% reduction in body weight gain during premating / food consumption reduced […]
# [8] = reproduction developmental, duration: 84 days, M/F, Sprague-Dawley, Body Weight: >10% reduction in body weight
# [9] = short-term, duration: 28 days, F, Sprague-Dawley, Hematological: Decreased red blood cells (8.9%), hemoglobin (10%), hematocrit (8.8%)
# [10] = short-term, duration: 28 days, M/F, Sprague-Dawley, Endocrine: Decreased T4 level (82% in males / 48% in females)
# [11] = developmental, duration: 17 days, F, B6C3F1, Developmental: 42.5% reduced NK cell activity in male pups at 8 weeks of age
# [12] = reproduction developmental, duration: 17 days, F, CD1, Endocrine: Decreased total T4 on GD 6
# [13] = short-term, duration: 21 days, M, CD1, Body Weight: ~15% reduced body weight + Reproductive: ~17% reduced serum testosterone, ~38% reduced epididymal sperm count
# [14] = short-term, duration: 28 days, M, B6C3F1, Immunotoxicological: Suppressed response to sRBC (~60%)
# [15] = subchronic, duration: 60 days, M, Immunotoxicological: Impaired response to sRBC
smiles,measurement,setting,value
O=S(=O)([O-])C(F)(F)C(F)(F)C(F)(F)C(F)(F)C(F)(F)C(F)(F)C(F)(F)C(F)(F)F.[K+] [Potassium perfluorooctanesulfonate],LOAEL,"Rattus norvegicus; acute, duration: 1 days, F, Sprague-Dawley, Endocrine: Transient decrease in serum TT4 (24, 38, and 53% after 2, 6, and 24 hours, respectively)",15 mg/kg-day
same,NOAEL,"Rattus norvegicus; acute, duration: 1 days, M, Sprague-Dawley",10.3 mg/kg-day
same,NOAEL,"Rattus norvegicus; chronic, duration: 14 weeks, F, Sprague-Dawley, Immunotoxicological: No histological alterations + Neurological: No histological alterations",1.56 mg/kg-day
same,LOAEL,Rattus norvegicus; [1],1.33 mg/kg-day
same,NOAEL,Rattus norvegicus; [1],0.34 mg/kg-day
same,NOAEL,"Rattus norvegicus; chronic, duration: 14 weeks, M, Sprague-Dawley, Hepatic: Increased absolute and relative liver weight / increased serum ALT / hepatocyte hypertrophy and vacuolation at 1.33/1.55 mg/kg/…",1.33 mg/kg-day
same,LOAEL,Rattus norvegicus; [2],1.04 mg/kg-day
same,NOAEL,Rattus norvegicus; [2],0.25 mg/kg-day
same,NOAEL,"Rattus norvegicus; chronic, duration: 104 weeks, M/F, Sprague-Dawley, Immunotoxicological: No histological alterations + Neurological: No histological alterations + Reproductive: No histological alterations",1.04 mg/kg-day
same,LOAEL,Rattus norvegicus; [3],1.04 mg/kg-day
same,NOAEL,Rattus norvegicus; [3],0.25 mg/kg-day
same,LOAEL,"Rattus norvegicus; chronic, duration: 91 days, M, Sprague-Dawley, Endocrine: 42% decrease in total T4 levels",0.27 mg/kg-day
same,LOAEL,"Rattus norvegicus; developmental, duration: 2 days, F, Sprague-Dawley, Developmental: Decreased neonatal survival (82% of controls on PND 1)",25 mg/kg-day
same,LOAEL,"Rattus norvegicus; developmental, duration: 2 days, F, Sprague-Dawley, Developmental: Increased neonatal mortality",25 mg/kg-day
same,LOAEL,"Rattus norvegicus; developmental, duration: 4 days, Sprague-Dawley, Body Weight: Weight loss during treatment when treated on GDs 2-5 (22%) or 6-9 (17%) + Developmental: Decreased neonatal survival (90% …",25 mg/kg-day
same,LOAEL,"Rattus norvegicus; developmental, duration: 19 days, F, Sprague-Dawley, Developmental: Increased incidences of cleft palate",10 mg/kg-day
same,LOAEL,Rattus norvegicus; [4],2 mg/kg-day
same,NOAEL,Rattus norvegicus; [4],1 mg/kg-day
same,NOAEL,"Rattus norvegicus; developmental, duration: 21 days, F, Sprague-Dawley",1 mg/kg-day
same,LOAEL,"Rattus norvegicus; developmental, duration: 21 days, F, Sprague-Dawley, Developmental: 2.1-fold increased fetal thyroid cell proliferation on GD 20",1 mg/kg-day
same,LOAEL,Rattus norvegicus; [5],1 mg/kg-day
same,NOAEL,Rattus norvegicus; [5],0.3 mg/kg-day
same,LOAEL,"Rattus norvegicus; developmental, duration: 67 days, F, Sprague-Dawley, >10% decrease in mean pup weight per litter on PND 5 at ?0.4 mg/kg/day / ~50% decrease mean pup survival per litter on PND 5 at ?1.6 mg/kg/…",1.6 mg/kg-day
same,LOAEL,"Rattus norvegicus; developmental, duration: 67 days, F, Sprague-Dawley, Developmental: >10% decrease in mean pup weight per litter on PND 5 at ?0.4 mg/kg/day / ~50% decrease mean pup survival per litter on PND 5…",0.4 mg/kg-day
same,NOAEL,"Rattus norvegicus; developmental, duration: 84 days, M/F, Sprague-Dawley, Developmental: Delayed eye opening and transient decrease in F2 pup body weight (13%) on LDs 7-14 at ?0.4 mg/kg/day / decreased pup …",0.1 mg/kg-day
same,LOAEL,"Rattus norvegicus; developmental, duration: 90 days, F, Sprague-Dawley, Increased pup mortality during PNDs 1-4",1.6 mg/kg-day
same,LOAEL,"Rattus norvegicus; developmental, duration: 91 days, F, Sprague-Dawley, Developmental: 19-36% reduced serum T4 levels in pups on PNDs 21-35 after gestationand/or postnatal-only exposure",3.2 mg/kg-day
same,NOAEL,"Rattus norvegicus; reproduction developmental, duration: 19 days, F, Sprague-Dawley",10 mg/kg-day
same,LOAEL,Rattus norvegicus; [6],2 mg/kg-day
same,NOAEL,Rattus norvegicus; [6],1 mg/kg-day
same,LOAEL,"Rattus norvegicus; reproduction developmental, duration: 19 days, F, Sprague-Dawley, Endocrine: Reduced total and free T4 and T3",1 mg/kg-day
same,LOAEL,Rattus norvegicus; [7],2 mg/kg-day
same,NOAEL,Rattus norvegicus; [7],1.6 mg/kg-day
same,LOAEL,Rattus norvegicus; [8],3.2 mg/kg-day
same,NOAEL,Rattus norvegicus; [8],1.6 mg/kg-day
same,NOAEL,"Rattus norvegicus; reproduction developmental, duration: 84 days, M/F, Sprague-Dawley, Reproductive: No alterations in mating and fertility parameters",3.2 mg/kg-day
same,NOAEL,"Rattus norvegicus; short-term, duration: 4 weeks, F, Sprague-Dawley, Immunotoxicological: No histological alterations + Neurological: No histological alterations",1.77 mg/kg-day
same,NOAEL,"Rattus norvegicus; short-term, duration: 4 weeks, M, Sprague-Dawley, Reproductive: No histological alterations",1.51 mg/kg-day
same,NOAEL,"Rattus norvegicus; short-term, duration: 7 days, M, Sprague-Dawley, Hepatic: Decreased serum cholesterol (38%) and triglyceride (55%) levels at 8.17 mg/kg/day",8.17 mg/kg-day
same,NOAEL,"Rattus norvegicus; short-term, duration: 7 days, M, Sprague-Dawley, Hepatic: Hepatocellular hypertrophy, increased liver weight, decreased serum cholesterol at ?1.79 mg/kg/day",8.96 mg/kg-day
same,NOAEL,"Rattus norvegicus; short-term, duration: 7 days, M, Wistar, Hepatic: 40% increase in absolute liver weight",15 mg/kg-day
same,LOAEL,Rattus norvegicus; [9],7.01 mg/kg-day
same,NOAEL,Rattus norvegicus; [9],3.47 mg/kg-day
same,LOAEL,Rattus norvegicus; [10],1.23 mg/kg-day
same,NOAEL,Rattus norvegicus; [10],0.14 mg/kg-day
same,NOAEL,"Rattus norvegicus; short-term, duration: 28 days, M, Sprague-Dawley, Hepatic: Hepatocellular hypertrophy and decreased serum cholesterol levels at ?1.54 mg/kg/day",7.34 mg/kg-day
same,NOAEL,"Rattus norvegicus; short-term, duration: 28 days, M, Sprague-Dawley, Hepatic: Increased relative liver weight / hepatocellular hypertrophy in males at 5.89 mg/kg/day",5.89 mg/kg-day
same,NOAEL,"Rattus norvegicus; subchronic, duration: 67 days, F, Sprague-Dawley, Hepatic: 16% reduction in serum total cholesterol on PND 5 at ?0.4 mg/kg/day / increased liver weight in dams at ?0.8 mg/kg/day + …",2 mg/kg-day
same,LOAEL,"Mus musculus; developmental, duration: 4 weeks, M, CD1, Developmental: Impaired retention of the task in the water maze test",3 mg/kg-day
same,LOAEL,"Mus musculus; developmental, duration: 1 days, M, CD1, Developmental: 24% decreased total spontaneous activity at 2 months of age / no significant alteration at 4 months",0.75 mg/kg-day
same,LOAEL,"Mus musculus; developmental, duration: 4 days, F, Developmental: 31% reduced percentage of live pups per litter on PND 15",4.5 mg/kg-day
same,LOAEL,"Mus musculus; developmental, duration: 5 days, F, ICR, Developmental: 6.1% increased cleft palate and 12.7% reduced body weight in fetuses",50 mg/kg-day
same,NOAEL,"Mus musculus; developmental, duration: 7 days, F, CD1",6 mg/kg-day
same,LOAEL,"Mus musculus; developmental, duration: 7 days, F, CD1, Developmental: Decreased distance traveled in open field test at 3 months of age",6 mg/kg-day
same,LOAEL,"Mus musculus; developmental, duration: 7 days, F, CD1, Developmental: Reduced body weight of pups on PNDs 4 and 8",6 mg/kg-day
same,LOAEL,Mus musculus; [11],1 mg/kg-day
same,NOAEL,Mus musculus; [11],0.1 mg/kg-day
same,NOAEL,"Mus musculus; developmental, duration: 17 days, F, CD1, Developmental: Increased incidences of sternal defects at ?5 mg/kg/day / reduced percentage of live fetuses (9%) at 20 mg/kg/day",1 mg/kg-day
same,NOAEL,"Mus musculus; developmental, duration: 17 days, F, CD1, Developmental: Peroxisome proliferation in fetal liver at ?5 mg/kg/day",5 mg/kg-day
same,LOAEL,"Mus musculus; developmental, duration: 17 days, F, ICR, Body Weight: 35% reduced maternal body weight + Developmental: 89% increased cleft palate, 25% reduced body weight in fetuses",20 mg/kg-day
same,LOAEL,"Mus musculus; developmental, duration: 18 days, F, ICR, Developmental: GDs 0-18: decreased survival (55.2%) at 10 mg/kg/day on PND 4, decreased neonatal BW, intracranial blood vessel dilatation, …",10 mg/kg-day
same,NOAEL,"Mus musculus; developmental, duration: 18 days, F, ICR, Hepatic: 60% increased absolute liver weight at ?10 mg/kg/day",20 mg/kg-day
same,LOAEL,"Mus musculus; developmental, duration: 21 days, F, Developmental: Decreased locomotion, muscle strength, and motor coordination in adult offspring",0.3 mg/kg-day
same,NOAEL,"Mus musculus; reproduction developmental, duration: 5 days, F, ICR, […] increased maternal relative liver weight",50 mg/kg-day
same,NOAEL,"Mus musculus; reproduction developmental, duration: 13 days, F, CD1, Endocrine: No alterations in serum T3 or T4 levels + Hepatic: 21% increase in absolute liver weight at ?3 mg/kg/day",6 mg/kg-day
same,LOAEL,Mus musculus; [12],20 mg/kg-day
same,NOAEL,Mus musculus; [12],15 mg/kg-day
same,NOAEL,"Mus musculus; reproduction developmental, duration: 17 days, F, CD1, Increase in absolute and relative liver weight and decreased serum triglycerides at ?5 mg/kg/day",20 mg/kg-day
same,NOAEL,"Mus musculus; short-term, duration: 14 days, M, CD1, Hepatic: ~70% increased absolute liver weight at ?5 mg/kg/day",10 mg/kg-day
same,LOAEL,Mus musculus; [13],10 mg/kg-day
same,NOAEL,Mus musculus; [13],5 mg/kg-day
same,NOAEL,"Mus musculus; short-term, duration: 21 days, M, CD1, Hepatic: Increased absolute liver weight at ?5 mg/kg/day",10 mg/kg-day
same,LOAEL,Mus musculus; [14],0.00166 mg/kg-day
same,NOAEL,Mus musculus; [14],0.000166 mg/kg-day
same,LOAEL,Mus musculus; [15],0.0833 mg/kg-day
same,NOAEL,Mus musculus; [15],0.0083 mg/kg-day and 0.0167 mg/kg-day
